Patent US20090281191A1, “USE OF ORGANIC COMPOUNDS” (priority 2006, published 2009)
pEC50: −log10 of the molar value. Values belong to the compound of their own block, whether it stands above or below them.

Assays:
(His)6-hERRγ LBD = target: T1, (His)6-hERRγ LBD (Homo sapiens, UniProt P62508); assay: FRET assay of agonist-induced activation of ERRγ with coactivator peptide PGC-1α; format: biochemical; conditions: for maximal increase in FRET signal: highest concentration tested / saturating concentrations
T1 sequence (P62508 233-457 limits assumed): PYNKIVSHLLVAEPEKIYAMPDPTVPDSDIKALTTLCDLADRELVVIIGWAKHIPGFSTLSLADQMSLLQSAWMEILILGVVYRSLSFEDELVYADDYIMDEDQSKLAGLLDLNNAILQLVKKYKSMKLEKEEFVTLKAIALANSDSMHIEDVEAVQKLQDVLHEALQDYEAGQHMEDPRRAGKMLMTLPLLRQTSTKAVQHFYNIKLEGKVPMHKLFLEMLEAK
Protocol: The FRET assay is designed to detect agonist-induced activation of ERRγ in the presence of the coactivator peptide PGC-1α. […] Mix 1 contained antibody, hERRγ LBD in buffer in a volume of 19 μL and was added to 30 μL of Mix 2 which contained Cy5-peptide in buffer (1. 6xHis-ERRγ-LBD, 3.6 mg/ml, MW 27 KDa; 2. Cy5-PGC-1 peptide from AnaSpec; 3. Other buffer components from Sigma; 4. EU-antiHis6-Ab from Perkin Elmer; and 5. Test compounds.). The assays were carried out in black 384-well plates and incubated at room temperature for 3 hrs before FRET signals were measured using a Wallac Victor 2 (Perkin Elmer) plate reader. The ratio of emission signals (665 nm/615 nm) was used to determine the FRET assay response. In some cases, the FRET signal to background ratio was used and this is simply defined as the FRET ratio in the presence of protein […] FRET ratio in the absence of protein. The test compounds were dissolved in DMSO at 10 mM and used as indicated.
The ability of agonist compounds to induce an increased FRET response between the Europium-labeled anti-(His)6 antibody/(His)6-hERRγ LBD complex and Cy5-[…] […] The compounds were solubilized in 10 mM DMSO and the concentration range of the titration was from 100 μM down to 2 nM. The final DMSO concentration was 2%. A DMSO control (no compound) at 2% was also prepared. All samples were made in duplicate.

primary mouse myotubes [1] = assay: Citrate synthase assay in primary mouse myotubes; format: cell-based; conditions: 24 hours
Protocol: (§1) Primary mouse myoblasts from FVB mice were isolated and maintained as described in Bare et al. For experimentation, mouse myoblasts were grown to 80% confluence in F-10/Ham's media containing 20% fetal bovine serum, 1% Penicillin/Streptomycin and 2.5 ng/mL bFGF (human recombinant). The cells were then plated to 700,000 cells per well in 6-well plates, and allowed to differentiate into myotubes for 36 to 48 hours in DMEM containing 5% equine serum and Penicillin/Streptomycin. […] Assays performed included analysis of gene expression by real time quantitative PCR (RT-PCR), cytochrome c ELISA, citrate synthase assay, fatty acid oxidation assay, and a respiration assay. […] Each dose was tested in trplicate, and a set of wells treated with an equivalent volume of DMSO used was included in every experimental readout for control purposes.
The citrate synthase assay was performed following the procedure described in above in this application.

ERRβ = target: T2, ERRβ (Homo sapiens, UniProt O95718); conditions: purportedly, Zuercher et al. 2005; cited from earlier work
T2 sequence (O95718 1-433): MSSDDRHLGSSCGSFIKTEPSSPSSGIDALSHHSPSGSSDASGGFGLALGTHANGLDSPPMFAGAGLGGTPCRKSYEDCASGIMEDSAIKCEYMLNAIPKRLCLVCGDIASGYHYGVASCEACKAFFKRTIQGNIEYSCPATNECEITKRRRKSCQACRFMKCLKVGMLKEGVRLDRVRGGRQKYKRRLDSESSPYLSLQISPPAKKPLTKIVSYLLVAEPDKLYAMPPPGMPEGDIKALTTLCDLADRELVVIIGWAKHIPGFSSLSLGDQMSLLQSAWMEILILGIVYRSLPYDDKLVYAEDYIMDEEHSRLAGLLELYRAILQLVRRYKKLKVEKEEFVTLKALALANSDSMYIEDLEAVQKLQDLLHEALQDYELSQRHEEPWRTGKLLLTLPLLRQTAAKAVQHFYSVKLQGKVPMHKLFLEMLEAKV

primary mouse myotubes [2] = assay: Respiration assay (oxygen consumption, Clark electrode) in primary mouse myotubes; format: cell-based; conditions: 30 μM, 24 hr
Protocol: as §1
Cells were washed once with phosphate-buffered saline (PBS) and treated for 5 min at 37° C. with 2 ml of trypsin (Mediatech, catalog number 25-052-CI). Without removing trypsin, 10 ml of DMEM plus 10% FBS was added into each well. The cells were transferred to a 15 ml tube and centrifuged for 5 min at 1000 rpm. The cells were washed once with the medium and pelleted before being resuspended in the assay buffer containing 25 mM glucose (Sigma, catalog number G-5400), 1 mM pyruvate (Invitrogen, catalog number 11360-070) and 2% bovine serum albumin (BSA) (MP Biomedicals, catalog number 103703) in D-PBS (Invitrogen, catalog number 14040-133). The cell suspension was diluted to 1×10^6 cells per ml in the assay buffer and kept at 37° C. until used. Oxygen consumption was measured with a Clark electrode according to the instructions provided by Hansatech (Norfolk, UK). One half of the cell suspension was used for each measurement. […] The rate of respiration was measured by calculating the slope of the flux of oxygen consumption using the software provided by the manufacturer.

ERRα = target: T3, ERRα (Homo sapiens, UniProt P11474); conditions: Zuercher et al. 2005; cited from earlier work
T3 sequence (P11474 1-423): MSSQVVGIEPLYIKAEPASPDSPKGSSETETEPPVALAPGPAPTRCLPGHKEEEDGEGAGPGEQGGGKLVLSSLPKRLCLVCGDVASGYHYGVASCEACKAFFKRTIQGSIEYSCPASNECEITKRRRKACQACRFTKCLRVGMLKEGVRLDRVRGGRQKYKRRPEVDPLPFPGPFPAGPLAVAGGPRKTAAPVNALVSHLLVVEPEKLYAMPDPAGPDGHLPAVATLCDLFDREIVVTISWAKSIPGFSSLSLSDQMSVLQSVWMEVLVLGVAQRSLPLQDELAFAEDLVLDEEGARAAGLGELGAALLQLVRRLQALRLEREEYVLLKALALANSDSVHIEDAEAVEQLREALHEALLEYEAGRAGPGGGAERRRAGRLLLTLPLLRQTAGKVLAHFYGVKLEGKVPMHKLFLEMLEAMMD

ERRγ = target: T4, ERRγ (Homo sapiens, UniProt P62508); conditions: purportedly, Zuercher et al. 2005; cited from earlier work
T4 sequence (P62508 1-458): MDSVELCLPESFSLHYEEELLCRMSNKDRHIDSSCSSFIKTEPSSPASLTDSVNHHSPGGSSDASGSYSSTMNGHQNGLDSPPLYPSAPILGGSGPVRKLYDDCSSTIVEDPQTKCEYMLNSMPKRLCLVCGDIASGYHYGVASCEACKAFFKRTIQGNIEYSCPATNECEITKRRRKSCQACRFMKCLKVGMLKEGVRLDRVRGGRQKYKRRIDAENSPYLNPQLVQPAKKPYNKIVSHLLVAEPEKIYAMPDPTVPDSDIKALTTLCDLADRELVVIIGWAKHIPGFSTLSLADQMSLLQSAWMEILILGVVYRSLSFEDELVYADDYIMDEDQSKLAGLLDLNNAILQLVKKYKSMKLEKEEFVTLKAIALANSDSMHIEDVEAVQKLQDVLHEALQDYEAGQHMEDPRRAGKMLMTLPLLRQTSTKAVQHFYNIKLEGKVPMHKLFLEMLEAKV

primary mouse myotubes [3] = assay: Cytochrome c ELISA in primary mouse myotubes; format: cell-based; conditions: 30 μM, 24 hours, vs vehicle
Protocol: as §1
The cytochrome c enzyme-linked immunosorbent assay (ELISA) was performed using the RatMouse Cytochrome c Immunoassay kit from R&D Systems (catalog number MCTC0, R&D Systems, Minneapolis, Minn.) following the manufacturer's instructions.

primary mouse myotubes [4] = assay: Gene expression by real time quantitative PCR in primary mouse myotubes; format: cell-based; conditions: 24 h
Protocol: as §1
For the purpose of assessing gene expression by RT-PCR, RNA was isolated from cell lysates, and cDNA was subsequently synthesized from this RNA. For RNA isolation, cells were homogenized in TRIzol (Invitrogen, catalog number 15596-026, Carlsbad, Calif.), and total RNA was isolated following the manufacturer's instructions. RNA was quantified using the spectrophotometer.
Reverse transcription was performed using the BD Sprint™ PowerScriptT™ kit from BD Biosciences (catalog number 639562). Quantitative real time PCR for the following genes was performed using Assay-on-Demand primer probes from Applied Biosystems (See Post-text Table 8-1 for catalog numbers): B2M, ERRγ, ERRβ, ERRα, PGC-1α, PGC-1β, PPARα, PPARγ, PPARδ, COX-4, cytochrome c, UQCRB, CPT-1b, LCAD, MCAD, IDH3a, ATP-5b, UCP-2, and UCP-3.
Taqman real time quantitative PCR was performed and analyzed following the manufacturer's instructions (Applied Biosystems). Specifically, amplification was performed in triplicate, in a 10 μl reaction mixture. The reaction mixture included: 1× TaqMan® Universal PCR Master Mix (Applied Biosystems, catalog number 4304437), 1× of Assay-on-Demand primer probe, and 2 μl of cDNA sample. Gene expression was calculated by normalizing to total cDNA as measured by B2M endogenous control (Applied Biosystems, catalog number Mm00437762_m1). The samples were initially incubated for 2 min at 50° C. for optimum uracyl-N-glycosylase activity. The PCR program started with a 95° C. denaturing for 10 min, followed by 40 cycles of 95° C./15 sec and 60° C./1 min in a 384-well thermal cycler (Perkin-Elmer Applied Biosystems). Each amplification run contained “No Template” controls (buffer and primers only). Amplification data were collected by the 7700 Sequence Detector and analyzed using the Sequence Detection System software developed by Perkin-Elmer (Applied Biosystems). The fractional cycle number reflecting a positive PCR result is called the cycle threshold (Ct).
Average gene expression values were calculated for each group relative to B2M, using 2^−ΔΔCt (as described by Applied Biosystems, Foster City, Calif.) with the expression in the vehicle treated cells (0 μM) normalized to a value of 1. The data are expressed as mean±SEM (n=3 replicate wells). Statistical significance was measured using Student's t test.

ERs = conditions: Zuercher et al. 2005; cited from earlier work
[5] = 30 μM, relative to B2M, vehicle = 1

maximal increase in FRET signal ((His)6-hERRγ LBD): ≤ 60%
Compound: CC(C)c1ccc(/C=N/NC(=O)c2ccc(O)cc2)cc1 [AJQ710, 4-hydroxy-N′-(4-isopropylphenylmethylidene)-benzohydrazide]
increase in citrate synthase activity (primary mouse myotubes [1]; 3 μM): 9%
increase in citrate synthase activity (primary mouse myotubes [1]; 10 μM): 8%
increase in citrate synthase activity (primary mouse myotubes [1]; 30 μM): 28%
activation of ERRβ (printed ERRP) (ERRβ): activates
increase in basal respiration (primary mouse myotubes [2]; vs vehicle treated controls): 37%
increase in respiration rate in the presence of FCCP (primary mouse myotubes [2]; vs vehicle-treated control cells): 32%
increase in oligomycin-insensitive respiration (proton leak) (primary mouse myotubes [2]; not statistically significant): 36%
activation of ERRα (ERRα): does not activate
activation of ERRγ (ERRγ): activates
increase of cytochrome c protein (primary mouse myotubes [3]): 88%
UCP-2 highest expression (primary mouse myotubes [4]; 10 μM, relative to B2M, vehicle = 1): 1.5 fold
ATP-5b expression increase (primary mouse myotubes [4]; [5]): 1.6 fold
COX-4 expression increase (primary mouse myotubes [4]; [5]): 2 fold
CPT-1b expression increase (primary mouse myotubes [4]; [5]): over 3 fold
ERRα expression increase (primary mouse myotubes [4]; [5]): 3.7 fold
ERRβ expression increase (primary mouse myotubes [4]; [5]): 1.5 fold
ERRγ expression (primary mouse myotubes [4]; [5]): 1.4 fold
IDH3α expression increase (primary mouse myotubes [4]; [5]): over 2 fold
LCAD expression increase (primary mouse myotubes [4]; [5]): 2.8 fold
MCAD expression increase (primary mouse myotubes [4]; [5]): 1.6 fold
PGC-1α expression (primary mouse myotubes [4]; [5]): 1.9 fold
PPARγ maximal expression (primary mouse myotubes [4]; [5]): 2.2 fold
UCP-3 expression increase (primary mouse myotubes [4]; [5]): over 3 fold
UQCRB expression increase (primary mouse myotubes [4]; [5]): 2 fold
cytochrome c expression increase (primary mouse myotubes [4]; [5]): 3.7 fold
PPARα expression (primary mouse myotubes [4]; 1-30 μM): no change in expression
PPARδ expression (primary mouse myotubes [4]; 1-30 μM): no change in expression
PGC-1β expression (primary mouse myotubes [4]; relative to B2M, vehicle = 1): 1.8 fold
activation of the ERs (ERs): does not activate

maximal increase in FRET signal ((His)6-hERRγ LBD): 70%
pEC50 ((His)6-hERRγ LBD; titration 100 μM down to 2 nM, 2% DMSO, duplicate, read-out: EC50 of FRET response): 6.27
Compound: CCN(CC)c1ccc(/C=N/NC(=O)c2ccc(O)cc2)cc1 [LCN446, N′-(4-(diethylamino)phenylmethylidene)-4-hydroxybenzohydrazide]
